Patent US20210038732A1, “ANTICANCER MICRORNA AND LIPID FORMULATIONS THEREOF” (INTERNA TECHNOLOGIES B.V., priority 2018, published 2021)

Tested on: 4T1 tumor microenvironment
Test: FACS analysis of immune cells in orthotopic 4T1 tumors (Example 4.4)
Assay type: in vivo, mice
Protocol: Freshly isolated orthotopic 4T1 tumors were prepared for FACS analysis on day 5 (week 1) and day 12 (week 2) post miRNA-193a treatment when they reached a min tumor volume (TV) of 300 mm^3. Tumor samples were digested using murine tumor dissociation kit from Miltenyi (CAT #130-096-730). Following tumor cell digestion cells were re-suspended in 200 μl staining buffer with […] Fc-Block (Mouse BD Fc Block™ CAT #553141) and incubated at 4° C. for 15 minutes in the dark. Different markers (CD45, CD3, CD4, CD8, FoxP3, CD335, F4/80, CD11b, Gr-1, CD73, LAG3/CD223, IL-2, IFN-r, PD-1, L/D stain) have been used for FACS analysis. Antibody mixture for all markers except IL-2, IFN-r and LAG3 were diluted in Fc blocking buffer for each sample and stained for 30 min on ice, in the dark. Then, cells were gently washed by adding 2 ml of ice cold PBS to each tube. Each tube was centrifuged at 300 g for 5 minutes and supernatant was discarded. To detect intracellular markers (IL-2, IFN-r and LAG3) stimulation of the digested cells was performed. To do so, Leukocyte Activation Cocktail, with BD GolgiPlug™ was used. The cocktail was thawed at 37° C. in a water bath rapidly and for every 1 mL of cell culture (e.g., ˜10^6 cells/mL) 2 μL of cocktail was added and mixed thoroughly. To stimulate, cell culture mix was placed in a 37° C. humidified CO2 incubator for 4-6 hr. Then the cells were harvested and washed with FACS staining buffer. For staining, cell pellet was resuspended with pulse vortex and 200 ul of prepared Fixation/Permeabilization was added to each sample. Samples were incubated for 10 min at RT in the dark. Then, samples were washed twice by adding 1 ml of 1× Permeabilization Buffer (made from 10× Permeabilization Buffer, diluted with distilled H2O) followed by centrifugation and decanting of supernatant and each sample was incubated with the antibody cocktail containing FoxP3, IFN-r and IL-2 in 1× Permeabilization Buffer and incubated at RT for 30 minutes in the dark. Finally, cells were resuspended in […] of staining Buffer and analyzed on cytometer. The data was analysed by Kaluza flow cytometry software (from Beckman Coulter).
Six to eight weeks old female BALB/c mice (Shanghai Lingchang Bio-Technology Co. Ltd, Shanghai, China) were injected with 3×10^5 4T1 mouse tumor cells in PBS (0.1 mL/mouse) into the mammary fat pad. At the time of randomization, the TVs ranged between 69.9 and 173.9 mm3 (median 105.7, IQR=100.7-125.4). Body weights and TVs (caliper measurements) were determined 2-3 times/week. After randomization (day 9 after tumor inoculation) mice received different treatments under different dosing regimen (see Table 9 for dosing scheme). For all groups, 4 mice are sacrificed 48h after the 2nd miRNA-193a injection in the first week and in the 2nd week. Primary tumors were surgically removed from the mammary fat pad on day 20 after inoculation. After a recovery period of 3 days, treatment was resumed for 6 more weeks until day 63. Re-growth of (distant) tumors was monitored in addition to BW, and mice were sacrificed if end-points were met.

miRNA-193a: duplex of the miRNA-193a-3p of SEQ ID NO: 218 (mimic, sense) with antisense strand SEQ ID NO: 219; naked in vitro, formulated in vivo (sense UGGGACUUUGUAGGCCAGUUTT; antisense AACUGGCCUACAAAGUCCCAGU; chemistry not given here; listed as Homo sapiens)
Ratio of CD8+ T cells/Treg cells (2 weeks post start of treatment, 10 mg/kg BIW iv, diamino lipid nanoparticles): > 1
Regulatory T cell population (FOXP3+/LAG3+) (after 1 week): significant decrease
T-cell function (production of IFNγ and IL-2) (after 1 week, CD45+ tumor cell population): significant increase
Regulatory T cell population (FOXP3+/LAG3+) (after 2 weeks): significant decrease
T-cell frequency (CD8+) (after 2 weeks): significant increase
T-cell function (IFNγ) (after 2 weeks): mild induction
CD73 (NT5E) expression level in immune cells (week 1 and week 2, 48h after administration): down-regulated
